# Reference: ChEMBL document CHEMBL5608173, “Discovery of novel natural-product-derived mutant isocitrate dehydrogenases 1 inhibitors: Structure-based virtual screening, biological evaluation and structure-activity relationship study” (Eur J Med Chem, 2024)
# Tested on: HT-1080
# Test: Cell cycle arrest in human HT-1080 cells assessed as S phase cells at 2 uM incubated for 24 hrs by PI staining based flow cytometric analysis (reference value: 18.3 %)
# Type: functional
compound,measurement,value
COc1cc(O)c(-c2cc(-c3ccc(O)cc3)nc(N3CCNCC3)n2)cc1CC=C(C)C,Activity,22.4%
